The test system of this test is PD1/PD-L1 pathway. Briefly: PD1/PD-L1 Blockade Bioassay, inhibition of the PD1/PD-L1 pathway at the cellular level (luciferase reporter, PD-1 Jukat T cells co-cultured with PD-L1 aAPC/CHO-K1 cells). The format is cell-based. Particulars: T-cell; for EC50: PD-1 Jukat T cells + PD-L1 aAPC/CHO-K1 cells, 6 h co-culture, ONE-Glo luciferase readout; for Emax: maximum % Activity relative to atezolizumab (set to 100%). Here is the method: Experiment 1: Detecting the Inhibitory Activity of Compounds on the PD1/PD-L1 Pathway at the Cellular Level Using the PD1/PD-L1 Blockade Bioassay Method
PD-1 Jukat T cells were revived and cultured with 1640 medium containing 100 μg/mL Hygromycin B, […] Puromycin, 10% FBS and 1% dual antibody; PD-L1 aAPC/CHO-K1 cells were revived and cultured with F12K medium containing 100 μg/mL Hygromycin B, 200 μg/mL G418, 10% FBS and 1% dual antibody.
The revived cells need to be passaged 2-3 times. When the cells enter the exponential growth phase with good growth status, the PD-L1 aAPC/CHO-K1 was digested with trypsin, and the cells were resuspended in F12K containing 5% FBS and adjusted to a density of 5×10^5 cells/mL. 20 μl/well were plated in a 384-well plate (10,000 cells/well) and incubated in an incubator overnight for 16-20 h.
a Preparation of compound stock solution: Dissolve the compound to be tested in DMSO to prepare a 20 mM stock solution.
b Compound gradient dilution: dilute the compound in 1640 medium containing 5% FBS without antibiotics or phenol red, and make 3-fold gradient dilutions to prepare 10 concentration gradients (2×).
c Adding drugs: Take out the cell culture plate, discard the supernatant, add 20 μl/well of the prepared compound, and incubate in the incubator for 1.5 h.
PD-1 Jukat T cells were collected, washed once with PBS, and resuspended in 1640 medium containing 5% FBS without antibiotics or phenol red. The density was adjusted to 1×10^6 cells/mL. 20 μl PD-1 Jukat T cells (20,000 cells/well) were added to each well and incubated in the incubator for 6 h.
ONE-Glo™ Luciferase Assay reagent was thawed to room temperature in advance and then added to a 384-well plate at 40 µl/well. Incubate in the dark for 15 minutes and read the […] signal on a plate reader.
[formula] • Among them, % Activity: % Activity • RLU: Resulting Luminescence unit • RLUvehicle: Average RLU value of negative control wells on each plate • RLUpositive: Average RLU value of positive control wells on each plate • Vehicle control: DMSO (0.1%) corresponding to the test value was used as negative control (its % Activity was 0%); • Positive control: The highest detection value at the atezolizumab administration concentration was used as the positive control (its % Activity was 100%). • (2) EC50 value calculation method: The EC50 value was obtained by the nonlinear fitting formula of Graph Pad Prism 8.0 software. The calculation formula is as follows:
Y=Bottom+(Top−Bottom)/(1+10^((Log EC50−X)×HillSlope)) • X: log of activator concentration (logarithm of compound concentration); Y: % Activity • (3) Emax definition: The maximum % Activity value corresponding to the maximum activation value of the compound relative to atezolizumab (the activation value is set to 100%).
On the technique in general: A reporter such as luciferase makes a cellular process visible.

Among the data in patent US20260234140A1, “PYRIDOPYRIMIDINE DERIVATIVE AND USE THEREOF” (SUNSHINE LAKE PHARMA CO., LTD., priority 2023, published 2026) are EC50 and Emax values, retold here.

As a reminder, the EC50 is the concentration giving half of the maximal effect. By Emax is commonly meant the maximal effect, on the per cent scale that the assay sets. Consider `O=C(O)C1CCN(Cc2ccnc(Nc3cccc(-c4cccc(Nc5nc(C(F)F)nc6cc(CN7CC[C@@H](O)C7)cnc56)c4Cl)c3Cl)c2F)CC1` [Example 36, (R)-1-((2-((2,2′-dichloro-3′-((2-(difluoromethyl)-7-((3-hydroxypyrrolidin-1-yl)methyl)pyrido[3,2-d]pyrimidin-4-yl)amino)-[1,1′-biphenyl]-3-yl)amino)-3-fluoropyridin-4-yl)methyl)piperidine-4-carboxylic acid], for which the EC50 is 55.5 nM and the Emax was 85%.
Take `COc1nc(-c2cccc(-c3cccc(Nc4nc(C(F)F)nc5cc(CN6CC[C@@H](O)C6)cnc45)c3C)c2Cl)ccc1CN(C)CC12CCC(C(=O)O)(CC1)C2` [Example 10, (R)-4-((((6-(2-chloro-3′-((2-(difluoromethyl)-7-((3-hydroxypyrrolidin-1-yl)methyl)pyrido[3,2-d]pyrimidin-4-yl)amino)-2′-methyl-[1,1′-biphenyl]-3-yl)-2-methoxypyridin-3-yl)methyl)(methyl)amino)methyl)bicyclo[2.2.1]heptane-1-carboxylic acid]: the EC50 is 70.7 nM and the maximal response (Emax) turned out to be 79.3%.
For the compound `COc1nc(-c2cccc(-c3cccc(Nc4nc(C(F)F)nc5cc(CN6CC[C@@H](CO)C6)cnc45)c3C)c2Cl)cnc1CN(C)[C@H]1CC[C@H](C(=O)O)CC1` [Example 23, (1r,4r)-4-(((5-(2-chloro-3′-((2-(difluoromethyl)-7-(((R)-3-(hydroxymethyl)pyrrolidin-1-yl)methyl)pyrido[3,2-d]pyrimidin-4-yl)amino)-2′-methyl-[1,1′-biphenyl]-3-yl)-3-methoxypyrazin-2-yl)methyl)(methyl)amino)cyclohexane-1-carboxylic acid], the concentration for a half-maximal effect (EC50) amounted to 44.4 nM and the Emax is 74%.
The corresponding values for `COc1nc(-c2cccc(-c3cccc(Nc4nc(C(F)F)nc5cc(CN6CC[C@](C)(O)C6)cnc45)c3C)c2Cl)cnc1CN(C)[C@H]1CC[C@H](C(=O)O)CC1` [Example 46, (1r,4r)-4-(((5-(2-chloro-3′-((2-(difluoromethyl)-7-(((S)-3-hydroxy-3-methylpyrrolidin-1-yl)methyl)pyrido[3,2-d]pyrimidin-4-yl)amino)-2′-methyl-[1,1′-biphenyl]-3-yl)-3-methoxypyrazin-2-yl)methyl)(methyl)amino)cyclohexane-1-carboxylic acid] are 60.7 nM and 86.7%.
As for `COc1nc(-c2cccc(-c3cccc(Nc4nc(C(F)F)nc5cc(CN6CC[C@H]([C@H](C)O)C6)cnc45)c3C)c2Cl)cnc1CN(C)[C@H]1CC[C@H](C(=O)O)CC1` [Example 45, (1r,4r)-4-(((5-(2-chloro-3′-((2-(difluoromethyl)-7-(((S)-3-((S)-1-hydroxyethyl)pyrrolidin-1-yl)methyl)pyrido[3,2-d]pyrimidin-4-yl)amino)-2′-methyl-[1,1′-biphenyl]-3-yl)-3-methoxypyrazin-2-yl)methyl)(methyl)amino)cyclohexane-1-carboxylic acid], the EC50 turned out to be 94.7 nM and the maximum response (Emax) is 87.3%.
The corresponding values for `COc1nc(-c2cccc(-c3cccc(Nc4nc(C(F)F)nc5cc(CN6CC[C@@H](O)C6)cnc45)c3C)c2Cl)ccc1CNC12CCC(C(=O)O)(CC1)C2` [Example 9, (R)-4-(((6-(2-chloro-3′-((2-(difluoromethyl)-7-((3-hydroxypyrrolidin-1-yl)methyl)pyrido[3,2-d]pyrimidin-4-yl)amino)-2′-methyl-[1,1′-biphenyl]-3-yl)-2-methoxypyridin-3-yl)methyl)amino)bicyclo[2.2.1]heptane-1-carboxylic acid] are 90.7 nM and 117%.
The corresponding values for `COc1nc(-c2cccc(-c3cccc(Nc4nc(C(F)F)nc5cc(CN6CC(C)(O)C6)cnc45)c3C)c2Cl)cnc1CN(C)[C@H]1CC[C@H](C(=O)O)CC1` [Example 19, (1r,4r)-4-(((5-(2-chloro-3′-((2-(difluoromethyl)-7-((3-hydroxy-3-methylazetidin-1-yl)methyl)pyrido[3,2-d]pyrimidin-4-yl)amino)-2′-methyl-[1,1′-biphenyl]-3-yl)-3-methoxypyrazin-2-yl)methyl)(methyl)amino)cyclohexane-1-carboxylic acid] are 43.2 nM and 80%.
Turning to `COc1nc(-c2cccc(-c3cccc(Nc4nc(C(F)F)nc5cc(CN6CC[C@@H](O)C6)cnc45)c3C)c2C)cnc1CN(C)[C@H]1CC[C@H](C(=O)O)CC1` [Example 27, (1r,4r)-4-(((5-(3′-((2-(difluoromethyl)-7-(((R)-3-hydroxypyrrolidin-1-yl)methyl)pyrido[3,2-d]pyrimidin-4-yl)amino)-2,2′-dimethyl-[1,1′-biphenyl]-3-yl)-3-methoxypyrazin-2-yl)methyl)(methyl)amino)cyclohexane-1-carboxylic acid], the concentration for a half-maximal effect (EC50) was found to be 112 nM and the Emax is 63%.
The corresponding values for `COc1nc(-c2cccc(-c3cccc(Nc4nc(C(F)F)nc5cc(CN6CC[C@@H](O)C6)cnc45)c3C)c2Cl)cnc1CN[C@H]1CC[C@H](C(=O)O)CC1` [Example 33, (1r,4r)-4-(((5-(2-chloro-3′-((2-(difluoromethyl)-7-(((R)-3-hydroxypyrrolidin-1-yl)methyl)pyrido[3,2-d]pyrimidin-4-yl)amino)-2′-methyl-[1,1′-biphenyl]-3-yl)-3-methoxypyrazin-2-yl)methyl)amino)cyclohexane-1-carboxylic acid] are 58.6 nM and 95.3%.
The corresponding values for `COc1nc(-c2cccc(-c3cccc(Nc4nc(C(F)F)nc5cc(CN6CC[C@@H](OC(F)F)C6)cnc45)c3C)c2Cl)cnc1CN(C)[C@H]1CC[C@H](C(=O)O)CC1` [Example 42, (1r,4r)-4-(((5-(2-chloro-3′-((7-(((R)-3-(difluoromethoxy)pyrrolidin-1-yl)methyl)-2-(difluoromethyl)pyrido[3,2-d]pyrimidin-4-yl)amino)-2′-methyl-[1,1′-biphenyl]-3-yl)-3-methoxypyrazin-2-yl)methyl)(methyl)amino)cyclohexane-1-carboxylic acid] are 90.9 nM and 74%.
For `COc1nc(-c2cccc(-c3cccc(Nc4nc(C(F)F)nc5cc(CN6CCC[C@H]6C)cnc45)c3C)c2Cl)cnc1CN(C)[C@H]1CC[C@H](C(=O)O)CC1` [Example 41] the same measures were 90.6 nM and 79%.
In the case of `COc1nc(-c2cccc(-c3cccc(Nc4nc(C(F)F)nc5cc(CN6CC[C@H]([C@@H](C)O)C6)cnc45)c3C)c2Cl)cnc1CN(C)[C@H]1CC[C@H](C(=O)O)CC1` [Example 44, (1r,4r)-4-(((5-(2-chloro-3′-((2-(difluoromethyl)-7-(((S)-3-((R)-1-hydroxyethyl)pyrrolidin-1-yl)methyl)pyrido[3,2-d]pyrimidin-4-yl)amino)-2′-methyl-[1,1′-biphenyl]-3-yl)-3-methoxypyrazin-2-yl)methyl)(methyl)amino)cyclohexane-1-carboxylic acid], the concentration for a half-maximal effect (EC50) was determined as 84.5 nM and the Emax worked out at 69%.
Take `COc1nc(-c2cccc(-c3cccc(Nc4nc(C(F)F)nc5cc(CN6CC[C@@H](O)C6)cnc45)c3C)c2Cl)ccc1CN[C@H]1CC[C@H](C(=O)O)CC1` [Example 2, (1r,4r)-4-(((6-(2-chloro-3′-((2-(difluoromethyl)-7-(((R)-3-hydroxypyrrolidin-1-yl)methyl)pyrido[3,2-d]pyrimidin-4-yl)amino)-2′-methyl-[1,1′-biphenyl]-3-yl)-2-methoxypyridin-3-yl)methyl)amino)cyclohexane-1-carboxylic acid]: the 50% effective concentration (EC50) amounted to 98.3 nM and the maximum response (Emax) was 118%.
